The test system of data set [1] is oral mucosa cells. The experiment in a line: Genotoxic effect on oral mucosa cells (ex vivo). It counts as cell-based, human. From the text:
(§1) The in vitro and ex vivo assays followed the guidelines provided in the Ethics Code of the World Medical Association and were approved by the Ethics Committee of the Patos University Center (protocol number: 3.621.284). For cell pellet preparation, blood samples (A, B, and O), and buccal mucosa were used from healthy young adults of both sexes between 18 and 40 years of age.
For evaluation of the genotoxic effect on oral mucosa cells, cell collection from the oral mucosa of the donors was performed with a cytobrush (smear brush collector) in the cheek area, and the material obtained was placed in 5 mL of 0.9% NaCl ([7]). Control samples were divided into two groups: cells treated with 0.0005% hydrogen peroxide (positive control) and cells not exposed to treatments (negative control). The cells were washed twice in saline solution and centrifuged for 10 min (900 g, 28°C). The cell pellets were re-suspended and kept in 5 mL of saline solution. After the third wash, they were exposed (ex vivo) to Pg-1 (50, 100, 500, and 1000 µg/mL) for 30 min; each test was performed in triplicate. The material was centrifuged for 5 min (900 g, 28°C) and the supernatant was removed before smear preparation. The cells were homogenized in a vortex and dried on the slides at room temperature for 15 min. Finally, they were fixed with a methanol:acetic acid mixture (3:1) for 15 min ([8]), and stained with 2% Giemsa. The cells were observed under an optical microscope and about 1000 cells were analyzed per slide. The data are reported as percentages representing the arithmetic average of three measurements ([9]). The cell toxicity was assessed by the presence of cellular indicators such as micronucleus, bi-nucleation, karyolysis, karyorrhexis, and macronucleus ([10]).

The nature of data set [2]: Hemolytic activity on human erythrocytes (in vitro). It counts as cell-based. Particulars: both sexes; for hemolysis at 1 h, 1000 µg/mL: 0.5% red blood cell suspension, read-out: hemolysis rate.
Excerpt: as §1
For hemolytic activity, red blood cell (RBC) samples were mixed with 0.9% NaCl in a proportion of 1:30 and centrifuged for 5 min (1400 g, 28°C) to obtain a white blood cell and platelet-free 0.5% suspension. The tested substance (Pg-1) was added to 2 mL RBC suspensions at the concentrations of 50, 100, 500, and 1000 µg/mL. The control samples were divided into two groups: negative control - RBC suspension (0% hemolysis) and a positive control - RBC suspension with 1% Triton X-100 (100% hemolysis). The material was incubated for 1 h at 22±2°C. Afterwards, the samples were centrifuged for 5 min (1400 g, 28°C) and hemolysis was quantified by spectrophotometry at 540 nm wavelength ([6]).

Read-outs that look alike come from different tables or passages of the source. Where only a bound is given, the exact number is not on record here.

With `COc1ccc(-c2oc3c(OC)c(O)cc(O)c3c(=O)c2OC)cc1` [Pg-1, 5,7-dihydroxy-3,8,4'-trimethoxy], in data set [1] (50 µg/mL, 30 min), the “Binucleation (%)” value was 3.00±0.33 %, the “Karyolysis (%)” value worked out at 2.88±0.11 %, the “Karyorrhexis (%)” value is 1.77±0.58 % and the “Macronucleus (%)” value is listed as 6.55±0.58%. Besides, in data set [1] (50 µg/mL, 30 min), the “Micronucleus (%)” value was 0.55±0.11 % and the “Normal (%)” value is on record as 85.22±0.72 %. Moreover, in data set [1] (100 µg/mL, 30 min), the “Binucleation (%)” value is recorded as 1.77±0.58 %, the “Karyolysis (%)” value was found to be 2.44±0.44 %, the “Karyorrhexis (%)” value worked out at 7.33±0.19% and the “Macronucleus (%)” value is reported as 3.55±0.94 %. Moreover, in data set [1] (100 µg/mL, 30 min), the “Micronucleus (%)” value amounted to 0.22±0.11 % and the “Normal (%)” value is given as 84.67±1.07 %. In data set [1] (500 µg/mL, 30 min), the “Binucleation (%)” value is on record as 2.33±0.50 %, the “Karyolysis (%)” value was determined as 2.55±0.80 %, the “Karyorrhexis (%)” value is recorded as 3.66±1.01 % and the “Macronucleus (%)” value is reported as 5.33±0.33%. Also, in data set [1] (500 µg/mL, 30 min), the “Micronucleus (%)” value was 0.22±0.11 % and the “Normal (%)” value turned out to be 85.89±1.78 %. For the same compound, in data set [1] (1000 µg/mL, 30 min), the “Binucleation (%)” value is on record as 1.55±0.58 %, the “Karyolysis (%)” value is reported as 1.44±0.22 %, the “Karyorrhexis (%)” value amounted to 1.44±0.11 % and the “Macronucleus (%)” value is listed as 3.66±0.19 %. In addition, in data set [1] (1000 µg/mL, 30 min), the “Micronucleus (%)” value worked out at 0.33±0.01 % and the “Normal (%)” value was 91.56±0.44 %. For the same compound, the “toxicity in genotoxicity testing” value in data set [1] (all concentrations (50-1000 µg/mL)) is “low toxicity”. In data set [2] (0.5% red blood cell suspension (blood types A, B and O), all concentrations tested (50-1000 µg/mL), read-out: rate of hemolysis (class)), the hemolysis at 1 h was 0 to 40%. Further, in data set [2] (type A blood), the hemolysis at 1 h, 1000 µg/mL was below 5%. Besides, the hemolysis at 1 h, 1000 µg/mL in data set [2] (type B blood) is below 17%. For the same compound, the hemolysis at 1 h, 1000 µg/mL in data set [2] (type O blood) was below 9%.
On to `OO` [Positive control, hydrogen peroxide, reference compound], for which, in data set [1] (0.0005% hydrogen peroxide), the “Binucleation (%)” value stood at 4.33±0.38%, the “Karyolysis (%)” value was determined as 5.44±0.72%, the “Karyorrhexis (%)” value was found to be 5.11±0.67% and the “Macronucleus (%)” value was 4.55±0.80%. Besides, in data set [1] (0.0005% hydrogen peroxide), the “Micronucleus (%)” value is on record as 4.00±0.88% and the “Normal (%)” value came to 76.56±3.08%. Besides, the “Normal (%)” value in data set [1] (0.0005% hydrogen peroxide, listed as positive control) was below 80%.

The values above are taken from paper PMC8373196, “In silico, in vitro, and ex vivo studies of the toxicological and pharmacological properties of the flavonoid 5,7-dihydroxy-3,8,4'-trimethoxy” (Brazilian Journal of Medical and Biological Research, 2021).
